# From patent US4826840A, “Cerebral protecting agent” (Taiyo Pharmaceutical Industry Co., Ltd., priority 1987, dated 1989)
# Counter-ions that a name gives are not always drawn.
# Key:
# [1] = Effect on brain ischemia model by MgCl2; assay type: in vivo, ddY male mice; details: for Survival Time: 2 h before saturated MgCl2 i.v.; for Prolongation of survival time (in words): doses of about 40 mg/kg, oral
# Experimental: ddY male mice (age: 7 weeks) having been preliminary bred in the same manner as in Example 7 were fasted and orally administered with the test compounds dissolved in 0.3%methylcellulose solution. Two (2) hours later, 0.05 ml of saturated solution of MgCl2 was intravenously administered rapidly through the caudal vein. The […] was determined as the period of time until final gasping.
# Measurement of LD50 = details: mouse, in vivo
# Excerpt: ddY male mice having been preliminary bred in the same manner as Example 7 were orally given the test compounds to determine LD50.
# [2] = Protective effect against KCN death; assay type: in vivo, ddY male mice
# [3] = tested on: vertebral artery blood flow; assay: Effect on vertebral artery blood flow; assay type: in vivo, Male adult dogs; details: for Increase in VBF (Δ%): n = 3; for Increase of VBF (in words): i.v., anesthetized dogs
# Experimental: (§1) Male adult dogs (weight: […]) were used for the experiment after they were preliminary bred in the metal cage for 1 week in a breeding room in which the temperature was controlled at 22±2° C. and the humidity was at 55±10%. They were given pelleted diet (CS, product of Oriental Yeast Co.) and water ad lib. Prior to submitting the animals to the experiment, they were fasted for 21-23 hours.
# (§2) The dogs were anesthetized with sodium pentobarbital and probes for measuring the blood flows were fitted on the right vertebral artery and right common carotid artery. After measuring the control blood flows, the test compounds dissolved in physiological saline were intravenously administered. The vertebral artery blood flow (VBF) and the common carotid artery flow (CCBF) were measured to determine the increments of the blood flow resulting from administration of the test compounds.
# [4] = Effect on bicuculline convulsion; assay type: in vivo, Wister male rats; details: 1 h before bicuculline 1.75 mg/kg i.v.; for Inhibition of the tonic extension (in words): oral
# Experimental: Each test compound was dissolved in 0.5% methylcellulose solution and orally administered to each mouse, and 1 hour later 1.75 mg/kg of bicuculline was given intravenously through caudal vein over the period of 15 seconds. Then, the tonic hindpaw extension was observed.
# [5] = tested on: common carotid artery blood flow; assay: Effect on common carotid artery blood flow; assay type: in vivo, Male adult dogs; details: for Increase in CCBF (Δ%): n = 3; for Increase of CCBF (in words): i.v., anesthetized dogs
# Experimental: as §1, §2
# [6] = 40 mg/kg p.o., 2 h before KCN 2.1 mg/kg i.v.
structure (smiles),measurement,setting,value
"CCOC(=O)C1=C[C@]2(CC)CCCN3CCc4c(n1c1ccccc41)[C@@H]32 [vinpocetine, reference compound]",Survival Time,[1]; 80 mg/kg oral,22.5 ± 1.1 s
CCCCC1=C(C)c2cc3c(cc2C1N1CCN(CCC)CC1)OCO3 (centres unmarked) [Compound 5b],LD50,"Measurement of LD50; oral, ddY male mice",510 mg/kg
same,Rate of Survival (%),[2]; [6],56%
same,Survived Animals/Tested Animals,[2]; [6],5/9
"CCCCC1=Cc2cc3c(cc2C1N1CCN(C)CC1)OCO3 (centres unmarked) [Compound 1c, Dihydrochloride of 1-(4-methylpiperazinyl)-2-n-butyl-5,6-methylenedioxyindene]",Increase in VBF (Δ%),"[3]; 0.3 mg/kg i.v., 1 min",6.3 ± 6.3 Δ%
same,Increase in VBF (Δ%),"[3]; 0.3 mg/kg i.v., 2 min",19.7 ± 9.0 Δ%
same,Increase in VBF (Δ%),"[3]; 0.3 mg/kg i.v., 3 min",32.2 ± 15.8 Δ%
same,Increase in VBF (Δ%),"[3]; 0.3 mg/kg i.v., 4 min",26.5 ± 13.2 Δ%
same,Increase in VBF (Δ%),"[3]; 0.3 mg/kg i.v., 5 min",16.1 ± 7.9 Δ%
same,Increase in VBF (Δ%),"[3]; 0.3 mg/kg i.v., 10 min",12.5 ± 12.5 Δ%
same,Increase in VBF (Δ%),"[3]; 0.3 mg/kg i.v., 15 min",15.5 ± 11.3 Δ%
same,Increase in VBF (Δ%),"[3]; 1 mg/kg i.v., 1 min",9.6 ± 5.1 Δ%
same,Increase in VBF (Δ%),"[3]; 1 mg/kg i.v., 2 min",59.6 ± 33.3 Δ%
same,Increase in VBF (Δ%),"[3]; 1 mg/kg i.v., 3 min",74.5 ± 36.3 Δ%
same,Increase in VBF (Δ%),"[3]; 1 mg/kg i.v., 4 min",68.9 ± 39.3 Δ%
same,Increase in VBF (Δ%),"[3]; 1 mg/kg i.v., 5 min",39.2 ± 27.5 Δ%
same,Increase in VBF (Δ%),"[3]; 1 mg/kg i.v., 10 min",14.0 ± 8.5 Δ%
same,Increase in VBF (Δ%),"[3]; 1 mg/kg i.v., 15 min",11.7 ± 9.0 Δ%
same,Increase in VBF (Δ%),"[3]; 3 mg/kg i.v., 1 min",44.2 ± 16.3 Δ%
same,Increase in VBF (Δ%),"[3]; 3 mg/kg i.v., 2 min",154.7 ± 56.5 Δ%
same,Increase in VBF (Δ%),"[3]; 3 mg/kg i.v., 3 min",173.7 ± 61.6 Δ%
same,Increase in VBF (Δ%),"[3]; 3 mg/kg i.v., 4 min",143.6 ± 54.0 Δ%
same,Increase in VBF (Δ%),"[3]; 3 mg/kg i.v., 5 min",111.4 ± 49.6 Δ%
same,Increase in VBF (Δ%),"[3]; 3 mg/kg i.v., 10 min",65.8 ± 30.5 Δ%
same,Increase in VBF (Δ%),"[3]; 3 mg/kg i.v., 15 min",37.5 ± 18.4 Δ%
same,Increase of VBF (in words),[3],increased VBF and CCBF dose-dependently
same,LD50,Measurement of LD50; po,368 mg/kg
same,Animals Convulsed/Animals Tested,[4]; 1 mg/kg oral,8/10
same,Rate of Convulsion Inhibition (%),[4]; 1 mg/kg oral,20%
same,Animals Convulsed/Animals Tested,[4]; 5 mg/kg oral,5/10
same,Rate of Convulsion Inhibition (%),[4]; 5 mg/kg oral,50%
same,Animals Convulsed/Animals Tested,[4]; 10 mg/kg oral,1/10
same,Rate of Convulsion Inhibition (%),[4]; 10 mg/kg oral,90%
same,Animals Convulsed/Animals Tested,[4]; 15 mg/kg oral,0/10
same,Rate of Convulsion Inhibition (%),[4]; 15 mg/kg oral,100%
same,Inhibition of the tonic extension (in words),[4],inhibited the tonic extension dose-dependency
same,Rate of Survival (%),"[2]; mouse, in vivo",78%
same,Survived Animals/Tested Animals,"[2]; mouse, in vivo",7/9
same,Increase in CCBF (Δ%),"[5]; 0.3 mg/kg i.v., 1 min",2.4 ± 1.3 Δ%
same,Increase in CCBF (Δ%),"[5]; 0.3 mg/kg i.v., 2 min",4.5 ± 0.7 Δ%
same,Increase in CCBF (Δ%),"[5]; 0.3 mg/kg i.v., 3 min",4.5 ± 0.7 Δ%
same,Increase in CCBF (Δ%),"[5]; 0.3 mg/kg i.v., 4 min",4.5 ± 0.7 Δ%
same,Increase in CCBF (Δ%),"[5]; 0.3 mg/kg i.v., 5 min",0.8 ± 2.7 Δ%
same,Increase in CCBF (Δ%),"[5]; 0.3 mg/kg i.v., 10 min",0 ± 0 Δ%
same,Increase in CCBF (Δ%),"[5]; 0.3 mg/kg i.v., 15 min",2.2 ± 2.8 Δ%
same,Increase in CCBF (Δ%),"[5]; 1 mg/kg i.v., 1 min",5.2 ± 0.8 Δ%
same,Increase in CCBF (Δ%),"[5]; 1 mg/kg i.v., 2 min",11.9 ± 4.7 Δ%
same,Increase in CCBF (Δ%),"[5]; 1 mg/kg i.v., 3 min",13.9 ± 7.4 Δ%
same,Increase in CCBF (Δ%),"[5]; 1 mg/kg i.v., 4 min",12.8 ± 7.2 Δ%
same,Increase in CCBF (Δ%),"[5]; 1 mg/kg i.v., 5 min",6.4 ± 3.6 Δ%
same,Increase in CCBF (Δ%),"[5]; 1 mg/kg i.v., 10 min",1.1 ± 1.1 Δ%
same,Increase in CCBF (Δ%),"[5]; 1 mg/kg i.v., 15 min",3.6 ± 2.0 Δ%
same,Increase in CCBF (Δ%),"[5]; 3 mg/kg i.v., 1 min",9.5 ± 2.7 Δ%
same,Increase in CCBF (Δ%),"[5]; 3 mg/kg i.v., 2 min",19.0 ± 16.1 Δ%
same,Increase in CCBF (Δ%),"[5]; 3 mg/kg i.v., 3 min",14.1 ± 18.0 Δ%
same,Increase in CCBF (Δ%),"[5]; 3 mg/kg i.v., 4 min",12.7 ± 14.2 Δ%
same,Increase in CCBF (Δ%),"[5]; 3 mg/kg i.v., 5 min",9.3 ± 10.8 Δ%
same,Increase in CCBF (Δ%),"[5]; 3 mg/kg i.v., 10 min",6.1 ± 5.8 Δ%
same,Increase in CCBF (Δ%),"[5]; 3 mg/kg i.v., 15 min",4.9 ± 5.0 Δ%
same,Increase of CCBF (in words),[5],increased VBF and CCBF dose-dependently
same,Survival Time,[1]; 40 mg/kg oral,28.8 ± 0.6 s
same,Survival Time,[1]; 80 mg/kg oral,32.3 ± 0.6 s
same,Prolongation of survival time (in words),[1],significant prolongation of survival time dose-dependency
CCCCC1=Cc2cc3c(cc2C1N1CCN(CCC)CC1)OCO3 (centres unmarked) [Compound 2b],Increase in VBF (Δ%),"[3]; 1 mg/kg i.v., 1 min",7.2 ± 4.9 Δ%
same,Increase in VBF (Δ%),"[3]; 1 mg/kg i.v., 2 min",18.6 ± 7.4 Δ%
same,Increase in VBF (Δ%),"[3]; 1 mg/kg i.v., 3 min",24.6 ± 8.3 Δ%
same,Increase in VBF (Δ%),"[3]; 1 mg/kg i.v., 4 min",17.6 ± 8.8 Δ%
same,Increase in VBF (Δ%),"[3]; 1 mg/kg i.v., 5 min",3.7 ± 3.7 Δ%
same,Increase in VBF (Δ%),"[3]; 3 mg/kg i.v., 1 min",43.1 ± 28.5 Δ%
same,Increase in VBF (Δ%),"[3]; 3 mg/kg i.v., 2 min",74.3 ± 23.3 Δ%
same,Increase in VBF (Δ%),"[3]; 3 mg/kg i.v., 3 min",78.2 ± 28.2 Δ%
same,Increase in VBF (Δ%),"[3]; 3 mg/kg i.v., 4 min",40.5 ± 21.1 Δ%
same,Increase in VBF (Δ%),"[3]; 3 mg/kg i.v., 5 min",18.5 ± 12.7 Δ%
same,Increase of VBF (in words),[3],increased VBF and CCBF dose-dependently
same,LD50,Measurement of LD50; po,450 mg/kg
same,Animals Convulsed/Animals Tested,[4]; 5 mg/kg oral,6/10
same,Rate of Convulsion Inhibition (%),[4]; 5 mg/kg oral,40%
same,Animals Convulsed/Animals Tested,[4]; 10 mg/kg oral,5/10
same,Rate of Convulsion Inhibition (%),[4]; 10 mg/kg oral,50%
same,Animals Convulsed/Animals Tested,[4]; 15 mg/kg oral,2/10
same,Rate of Convulsion Inhibition (%),[4]; 15 mg/kg oral,80%
same,Animals Convulsed/Animals Tested,[4]; 20 mg/kg oral,0/10
same,Rate of Convulsion Inhibition (%),[4]; 20 mg/kg oral,100%
same,Inhibition of the tonic extension (in words),[4],inhibited the tonic extension dose-dependency
same,Rate of Survival (%),"[2]; mouse, in vivo",50%
same,Survived Animals/Tested Animals,"[2]; mouse, in vivo",5/10
same,Increase in CCBF (Δ%),"[5]; 1 mg/kg i.v., 1 min",1.5 ± 1.5 Δ%
same,Increase in CCBF (Δ%),"[5]; 1 mg/kg i.v., 2 min",5.2 ± 1.6 Δ%
same,Increase in CCBF (Δ%),"[5]; 1 mg/kg i.v., 3 min",2.4 ± 1.2 Δ%
same,Increase in CCBF (Δ%),"[5]; 1 mg/kg i.v., 4 min",1.4 ± 1.4 Δ%
same,Increase in CCBF (Δ%),"[5]; 1 mg/kg i.v., 5 min",-1.0 ± 1.0 Δ%
same,Increase in CCBF (Δ%),"[5]; 3 mg/kg i.v., 1 min",7.1 ± 5.6 Δ%
same,Increase in CCBF (Δ%),"[5]; 3 mg/kg i.v., 2 min",9.8 ± 7.4 Δ%
same,Increase in CCBF (Δ%),"[5]; 3 mg/kg i.v., 3 min",4.6 ± 4.8 Δ%
same,Increase in CCBF (Δ%),"[5]; 3 mg/kg i.v., 4 min",-1.8 ± 4.3 Δ%
same,Increase in CCBF (Δ%),"[5]; 3 mg/kg i.v., 5 min",-5.9 ± 2.1 Δ%
same,Increase of CCBF (in words),[5],increased VBF and CCBF dose-dependently
same,Survival Time,[1]; 40 mg/kg oral,28.3 ± 1.5 s
same,Survival Time,[1]; 80 mg/kg oral,32.4 ± 1.5 s
same,Prolongation of survival time (in words),[1],significant prolongation of survival time dose-dependency
"COC(=O)C1=C(C)NC(C)=C(C(=O)OCCN(C)Cc2ccccc2)C1c1cccc([N+](=O)[O-])c1 (centres unmarked) [nicardipine, reference compound]",Survival Time,[1]; 80 mg/kg oral,24.3 ± 1.0 s
CCCCC1=C(c2ccccc2)c2cc3c(cc2C1N1CCN(CCC)CC1)OCO3 (centres unmarked) [Compound 6b],LD50,"Measurement of LD50; oral, ddY male mice",608 mg/kg
same,Rate of Survival (%),[2]; [6],30%
same,Survived Animals/Tested Animals,[2]; [6],3/10
CCCCC1=Cc2cc3c(cc2C1N1CCCN(CCC)CC1)OCO3 (centres unmarked) [Compound 4b],LD50,"Measurement of LD50; oral, ddY male mice",373 mg/kg
same,Rate of Survival (%),[2]; [6],56%
same,Survived Animals/Tested Animals,[2]; [6],5/9
CCCCC1=Cc2cc3c(cc2C1N1CCN(CCCC)CC1)OCO3 (centres unmarked) [Compound 3b],LD50,"Measurement of LD50; oral, ddY male mice",430 mg/kg
same,Rate of Survival (%),[2]; [6],33%
same,Survived Animals/Tested Animals,[2]; [6],3/9
